Measured values published in PMC7047604 (Journal of medicinal chemistry, 2020).
“Also recorded” adds a separate entry of the source.

Tests used:
[1] = molecular target: T1, human DOR (Homo sapiens, UniProt P41143); assay type: binding
[2] = molecular target: T2, human KOR (Homo sapiens, UniProt P41145); assay type: binding
[3] = system: male C57BL/6 mice; conditions: mouse, in vivo
[4] = molecular target: T2, human KOR; assay type: biochemical
[5] = in vitro; conditions: mouse, microsomes, pH 7.4, metabolic half-life in MLM, abstract statement
[6] = molecular target: T1, human DOR; assay type: biochemical
[7] = molecular target: human MOR (Homo sapiens, UniProt P35372); test: biochemical; assay type: biochemical; conditions: for Emax at 10 µM: read-out: Efficacy (% Stimulation) MOR
Chain of human MOR (P35372 whole entry): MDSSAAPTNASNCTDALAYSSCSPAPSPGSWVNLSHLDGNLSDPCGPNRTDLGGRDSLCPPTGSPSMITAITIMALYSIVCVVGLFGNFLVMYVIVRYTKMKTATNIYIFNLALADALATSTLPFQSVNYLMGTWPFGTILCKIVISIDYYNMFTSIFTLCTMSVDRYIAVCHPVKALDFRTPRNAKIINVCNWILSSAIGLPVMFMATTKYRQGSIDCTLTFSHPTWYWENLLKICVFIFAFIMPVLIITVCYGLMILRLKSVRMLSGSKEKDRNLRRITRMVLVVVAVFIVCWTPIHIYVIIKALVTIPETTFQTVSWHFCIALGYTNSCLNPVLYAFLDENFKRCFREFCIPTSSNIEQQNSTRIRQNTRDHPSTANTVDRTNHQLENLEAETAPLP

T1 sequence (P41143 whole entry): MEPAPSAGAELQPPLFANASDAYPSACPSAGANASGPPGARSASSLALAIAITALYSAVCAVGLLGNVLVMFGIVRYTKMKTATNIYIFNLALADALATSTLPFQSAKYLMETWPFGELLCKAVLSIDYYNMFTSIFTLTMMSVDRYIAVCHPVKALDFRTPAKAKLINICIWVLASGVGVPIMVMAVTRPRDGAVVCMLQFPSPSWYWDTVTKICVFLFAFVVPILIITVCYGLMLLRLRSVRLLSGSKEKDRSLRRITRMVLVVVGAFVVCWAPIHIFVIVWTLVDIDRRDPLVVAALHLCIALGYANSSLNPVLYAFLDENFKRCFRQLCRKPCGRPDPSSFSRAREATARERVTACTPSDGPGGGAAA
T2 sequence (P41145 whole entry): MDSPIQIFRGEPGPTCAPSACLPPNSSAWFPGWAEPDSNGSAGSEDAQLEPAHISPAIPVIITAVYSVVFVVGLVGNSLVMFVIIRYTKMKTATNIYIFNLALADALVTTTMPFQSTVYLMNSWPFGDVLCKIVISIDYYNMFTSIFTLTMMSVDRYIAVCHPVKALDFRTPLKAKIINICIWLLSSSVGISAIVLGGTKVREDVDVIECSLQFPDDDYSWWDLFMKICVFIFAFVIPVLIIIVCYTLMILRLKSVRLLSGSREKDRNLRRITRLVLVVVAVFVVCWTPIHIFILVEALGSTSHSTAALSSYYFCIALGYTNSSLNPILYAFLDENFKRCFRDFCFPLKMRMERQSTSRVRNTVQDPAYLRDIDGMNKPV

SMILES | Selectivity MOR:DOR:KOR, DOR term (Ki DOR / Ki MOR) [1] | Selectivity MOR:DOR:KOR, KOR term (Ki KOR / Ki MOR) [2] | antinociceptive activity in AASA (overall) [3] | Efficacy (% Stimulation) KOR [4] | Potency, EC50 KOR [4] | antinociceptive activity in AASA at 1 mg/kg [3] | half-life at 1 μM [5] [h] | Efficacy (% Stimulation) DOR [6] | Potency, EC50 DOR [6] | MOR agonist character in words [7] | Emax at 10 µM [7] [%] | partial DOR agonist, potency in words [6] | KOR binding affinity in words [2] | Efficacy (% Stimulation) MOR [7] | Potency, EC50 MOR [7]
CCOc1ccc(CN2CCCC2)cc1CNC(=O)[C@@H](N)Cc1c(C)cc(O)cc1C.O=C(O)C(F)(F)F [Compound 13, (S)-1-((2-ethoxy-5-(pyrrolidin-1-ylmethyl)benzyl)amino)-3-(4-hydroxy-2,6-dimethylphenyl)-1-oxopropan-2-aminium trifluoroacetate] | 1:3.0:29 | 1:3.0:29 | inactive; also recorded: lacked antinociceptive activity | – | – | – | – | – | – | – | – | – | – | – | –
CCOc1ccc(CN2CCCCC2)cc1CNC(=O)[C@@H](N)Cc1c(C)cc(O)cc1C.O=C(O)C(F)(F)F [Compound 14, (S)-1-((2-ethoxy-5-(piperidin-1-ylmethyl)benzyl)amino)-3-(4-hydroxy-2,6-dimethylphenyl)-1-oxopropan-2-aminium trifluoroacetate] | 1:3.1:20 | 1:3.1:20 | – | DNS | DNS | active antinociceptive agents | > 1 | – | – | – | – | – | – | – | –
CCOc1ccc(CN2CC3CC3C2)cc1CNC(=O)[C@@H](N)Cc1c(C)cc(O)cc1C.O=C(O)C(F)(F)F (stereo partly drawn) [Compound 15, (2S)-1-((5-((3-azabicyclo[3.1.0]hexan-3-yl)methyl)-2-ethoxybenzyl)amino)-3-(4-hydroxy-2,6-dimethylphenyl)-1-oxopropan-2-aminium trifluoroacetate] | 1:2.6:13 | 1:2.6:13 | – | – | – | – | – | – | – | – | – | – | – | – | –
CCOc1ccc(CN2CCOCC2)cc1CNC(=O)[C@@H](N)Cc1c(C)cc(O)cc1C.O=C(O)C(F)(F)F [Compound 16, (S)-1-((2-ethoxy-5-(morpholinomethyl)benzyl)amino)-3-(4-hydroxy-2,6-dimethylphenyl)-1-oxopropan-2-aminium trifluoroacetate] | 1:2.0:>49 | 1:2.0:>49 | – | DNS | DNS | – | – | did not stimulate DOR and DNS | DNS | – | – | – | – | – | –
CCOc1ccc(CN2Cc3ccccc3C2)cc1CNC(=O)[C@@H](N)Cc1c(C)cc(O)cc1C.O=C(O)C(F)(F)F [Compound 17, (S)-1-((2-ethoxy-5-(isoindolin-2-ylmethyl)benzyl)amino)-3-(4-hydroxy-2,6-dimethylphenyl)-1-oxopropan-2-aminium trifluoroacetate] | – | – | – | DNS | DNS | active antinociceptive agents | – | 35.7±2.8% | – | full agonists | 98.1 ± 6.7 | moderate | – | – | –
CCOc1ccc(CN2CCc3ccccc3C2)cc1CNC(=O)[C@@H](N)Cc1c(C)cc(O)cc1C.O=C(O)C(F)(F)F [Compound 18, (S)-1-((5-((3,4-dihydroisoquinolin-2(1H)-yl)methyl)-2-ethoxybenzyl)amino)-3-(4-hydroxy-2,6-dimethylphenyl)-1-oxopropan-2-aminium trifluoroacetate] | 1:10:192 | – | – | DNS | DNS | – | – | did not stimulate DOR and DNS | DNS | full agonists | 94.6 ± 3.9 | – | – | – | –
CCOc1ccc(CNCc2ccccc2)cc1CNC(=O)[C@@H](N)Cc1c(C)cc(O)cc1C.O=C(O)C(F)(F)F [Compound 19, (S)-1-((5-((benzylamino)methyl)-2-ethoxybenzyl)amino)-3-(4-hydroxy-2,6-dimethylphenyl)-1-oxopropan-2-aminium trifluoroacetate] | – | – | – | >20% | – | – | – | 26.1±1.7% | – | – | 77.9 ± 3 | high | low double-digit | – | –
CCOc1ccc(CN(C)Cc2ccccc2)cc1CNC(=O)[C@@H](N)Cc1c(C)cc(O)cc1C.O=C(O)C(F)(F)F [Compound 20, (S)-1-((5-((benzyl(methyl)amino)methyl)-2-ethoxybenzyl)amino)-3-(4-hydroxy-2,6-dimethylphenyl)-1-oxopropan-2-aminium trifluoroacetate] | 1:4.0:26 | 1:4.0:26 | inactive; also recorded: lacked antinociceptive activity | DNS | DNS | – | – | did not stimulate DOR and DNS | DNS | – | 72.2 ± 6.2 | – | low double-digit | – | –
CCOc1ccc(C(=O)N2CCCC2)cc1CNC(=O)[C@@H](N)Cc1c(C)cc(O)cc1C.O=C(O)C(F)(F)F [Compound 21, (S)-1-((2-ethoxy-5-(pyrrolidine-1-carbonyl)benzyl)amino)-3-(4-hydroxy-2,6-dimethylphenyl)-1-oxopropan-2-aminium trifluoroacetate] | 1:2.2:>22 | 1:2.2:>22 | – | DNS | DNS | – | – | did not stimulate DOR and DNS | DNS | – | – | – | – | DNS | DNS
CCOc1ccc(C(=O)N2Cc3ccccc3C2)cc1CNC(=O)[C@@H](N)Cc1c(C)cc(O)cc1C.O=C(O)C(F)(F)F [Compound 22, (S)-1-((2-ethoxy-5-(isoindoline-2-carbonyl)benzyl)amino)-3-(4-hydroxy-2,6-dimethylphenyl)-1-oxopropan-2-aminium trifluoroacetate] | 1:20:900 | – | – | DNS | DNS | – | – | did not stimulate DOR and DNS | DNS | – | 27.8 ± 0.7 | – | – | – | –
